Structures are written as SMILES. Values after ≈ are worked out from the molar mass of the structure shown. Values joined by “and” are separate entries in the source; they are usually repeats but may differ in a detail not shown here. Equal entries are not always repeated. Where two headings read alike, the source gives them in different places. Bounds are passed on as bounds.

For assay [1], the system named is A/Minfang/151/2000 (H3N2). Briefly: microbe, parasite or virus in culture. The conditions noted are these: Influenza A virus, H3N2, MDCK.
In assay [2] the test system is A/PR/8/34 (H1N1).
For assay [3], the system named is A/Minfang/151/2000 (H3N2).
The test system of assay [4] is A/PR/8/34 (H1N1). Briefly: microbe, parasite or virus in culture. The note with it: Influenza A virus, MDCK.
The subject of the next assay is H1N1. The conditions noted are these: restraint-stressed mouse model; ref Chong et al., 2017; cited from earlier work.
Assay [5] relates to Japanese encephalitis virus (JEV). The note with it: mouse model; ref Chang et al., 2012; cited from earlier work.
The test system is the same in assay [6]. The note with it: in vitro; ref Chang et al., 2012; cited from earlier work.
The subject of a further assay is HCoV-NL63. The arrangement: method as in Tsai et al., 2020. The note with it: HCoV-NL63-infected cells; ref Tsai et al., 2020; read-out: IC50 (CPE and virus yield); cited from earlier work.

Turning to `COc1ccc(-c2cc(=O)c3c(O)cc(O)cc3o2)cc1` [Acacetin], in assay [1], the IC50 amounted to 7.62 ± 1.45 µg/mL (≈ 26.8 µM).
In assay [1], `COc1c(O)cc2oc(-c3ccc(O)cc3)cc(=O)c2c1O` [Dinatin] gave an IC50 above 100 µg/mL.
As for `COc1ccc(-c2cc(=O)c3c(O)c(OC)c(OC)cc3o2)cc1O` [Eupatorin], the IC50 was 63.99 ± 3.38 µg/mL and 55.77 ± 3.86 µg/mL and 88.92 ± 7.34 µg/mL in the assay on A/PR/8/34 (H1N1) [2]; 69.31 ± 1.97 µg/mL and 73.85 ± 1.34 µg/mL and 92.58 ± 0.33 µg/mL in assay [3]; 59.5 ± 3.58 µg/mL (≈ 173 µM) with A/PR/8/34 (H1N1) [4].
As for `O=C1Nc2ccccc2/C1=C1/Nc2ccccc2C1=O` [Indirubin], the IC50 in the assay on A/PR/8/34 (H1N1) [2] is 63.45 ± 5.27 µg/mL and 86.3 ± 5.68 µg/mL and 69.49 ± 1.36 µg/mL; in assay [1], 77.2 ± 6 µg/mL (≈ 294 µM); in the assay with A/PR/8/34 (H1N1) [4], 58.5 ± 10.2 µg/mL (≈ 223 µM). The “H1N1 susceptibility and lung damage” value in the assay on H1N1 is “decrease the H1N1 susceptibility and alleviate lung damage”. In assay [5], the “protection against lethal JEV challenge” value is reported as “good protective effects”. Besides, in assay [6], the “inhibitory activity on JEV replication” value is “concentration-dependent inhibitory activity”.
Take `COc1ccc(-c2cc(=O)c3c(O)cc(O[C@@H]4O[C@H](CO[C@@H]5O[C@@H](C)[C@H](O)[C@@H](O)[C@H]5O)[C@@H](O)[C@H](O)[C@H]4O)cc3o2)cc1` [Linarin]: the IC50 is 54.27 ± 3.01 µg/mL and 72.21 ± 2.42 µg/mL and 56.26 ± 0.78 µg/mL in the assay on A/PR/8/34 (H1N1) [2]; 81.85 ± 2.76 µg/mL and 86.35 ± 9.88 µg/mL and 77.71 ± 3.08 µg/mL in assay [3]; 63.2 ± 3.32 µg/mL (≈ 107 µM) in the assay on A/PR/8/34 (H1N1) [4].
For the compound `O=C1c2ccccc2-n2c1nc1ccccc1c2=O` [Tryptanthrin], the IC50 in the assay with HCoV-NL63 is 1520 nM.

What is called IC50 is the midpoint of a concentration-inhibition curve.
